# Test results reported in patent US5744499A, “Apoptosis-modulating factors influencing the intracellular concentration of methional/malondialdehyde” (Centre International de Recherches Dermatologiques Galderma, priority 1994, dated 1998).
# Legend:
# HeLa cells [1] = assay: Effect of metabolites on the growth of HeLa cells; format: cell-based; conditions: Homo sapiens, 72 h, three days at 37° C., estimated by protein content, average of 3 or 4 experiments, read-out: IC50 (concentration required to inhibit cell growth by 50%)
# Protocol: HeLa cells (0.5×10^6 per Petri dish) were cultured in 3 ml of a minimum essential Eagle medium containing 10% by weight dialyzed fetal calf serum. After four hours, methional (10 μM-1 mM), methionol (10 μM-20 mM), methylthiopropionic acid (MTPA) (1 μM-20 mM), L-methionine (1 μM-20 mM) or 4-methylthio-2-oxobutanoic acid (MTOB) (1 μM-20 mM) were added to each of the three dishes. After three days at 37° C., the cells were washed twice in a buffered, phosphatized saline medium having a pH of 7.5 (PBS medium) and collected in the same type of buffer.
# Cell growth was assessed by measuring protein content (see technique described in O. H. Lowry, N. J. Rosebrouh, A. L. Farr, and R. J. Randall, J. Biol. Chem., 193, 265-275 (1951)) or the DNA content in the lysate using a bisbenzimide trihydrochloride solution (Hoechst 33258) (see W. D. Jarvis, R. N. Kolesnick, F. A. Fornari, R. S. Traylor, D. A. Gewirtz, and S. Grant, Proc. Natl. Acad. Sci. USA, 91, 73-77 (1994)), or by determining […] using 3-(4,5-dimethylthiazol-2-yl)-2,5-diphenyl-tetrazolium bromide (MTT) (see T. Mosmann, J. of Immunology, Methods, 65, 55-63 (1983)).
# Each value of is the average of 3 or 4 experiments as estimated by protein content.
# IC50 represents the concentration of compound required to inhibit cell growth by 50%.
# BAF3 cells [2] = assay: DNA fragmentation in BAF3 cells, agarose gel electrophoresis; format: cell-based, mouse; conditions: 200-800 μM, medium with IL3, 8 hours
# Protocol: K. L. Collins, J. Marvel, […] A. Lopez-[…]. Exp. Med., 176, 1043-1051 (1992)]. […] After 8 hours of contact, the cells were washed three times in a phosphatized buffered saline medium, pH=7.5 (PBS medium). […] The supernatants were decanted and analyzed as indicated below. For purposes of comparison, the same cultures were grown in a medium, either with IL3 (+IL3) or without IL3 (-IL3). The DNA fragments obtained were analyzed qualitatively using the method described, in particular, in W. D. Jarvis, […], and S. Grant, Proc. Natl. Acad. Sci. USA, 91, 73-77 (1994). The supernatants were treated with ribonuclease A (20 μg/ml) for 1 hour at 37° C., and with the proteinase R (100 μg/ml). The DNA was purified using phenol extraction and precipitated with ethanol. […] After electrophoresis (60V, 3 hours), the gels were stained with ethydium bromide.
# [3] = system: murine B16 Fl melanoma cells; assay: Survival of mice grafted with B16 melanoma cells; format: in vivo, mouse; conditions: BCNU 0.1 mg/kg, Compound A 25 mg/kg
# Protocol: At t=0 day, 10^5 murine B16 Fl melanoma cells were injected into B6D2Fl mice (from the IFFA CREDO Company, France).
# Table 5 reports the results corresponding to averages of the results obtained on three treated mice.
# For the regimens containing multiple compounds, the quantities of each of the compounds used were identical to those of the regimens using the compounds by themselves.
# Survival time was recorded beginning at t=0 day, as indicated above.
# BCNU corresponds to N,N-Bis(2-chloroethyl)-N-nitrosourea. Compound A corresponds to the compound having formula (9), wherein X is a --OH radical.
# Between the two regimens, the latter (to which methional was added) accounted for one-third of the mice surviving more than 60 days. The "average survival time" is the mean of the number of mice dying over the course of the experiment, i.e., within 60 days.
# The procedure of the previous example was repeated, but the regimens and numbers of mice treated varied.
# With respect to this latter regiment, the quantities corresponded to the quantities of compounds used alone. The percentage of long-term survivors corresponded to the percentage of mice which survived beyond 60 days.
# BAF3 cells [4] = assay: Apoptosis of BAF3 cells, terminal deoxynucleotidyl transferase (TdT) test, flow cytometry; format: cell-based, mouse; conditions: 24 hours; compound A 50 μM, BCNU 40 μg/ml, or both; control 0.2
# Protocol: Effect of BCNU and of an inhibitor of the transaminase implicated in the transformation of 4-methylthio-2-oxobutanoic acid into methionine on apoptosis:
# The DNA strand cuttings were marked with biotinylated dUTP (detected by avidin fluorescein), in situ, in the cells rendered permeable and fixed using the terminal DNA transferase deoxynucleotidyl test (TdT), as described in Gorczyca et al, Cancer Res., 53, 1945-1951 (1993). 1.5×10^6 BAF3 cells (cell line described above) seeded in 3 ml of a culture medium containing IL3 (Dulbecco-modified Eagle medium containing 6% fetal calf serum and 5% of a medium treated with Wehl-3B cells used in the IL3 source). The cells were incubated in the presence of compound A in a concentration of 50 μM, 40 μg/ml of BCNU, and the mixture of these two compounds (50 μM of compound A+40 μg/ml of BCNU) or in the absence of these two compounds (control). After a 24-hour incubation period of time, the cells were washed in PBS buffer and fixed in formaldehyde, then in ethanol, and maintained a -20° C. for 3 days. Next, the cells were again placed in suspension in 50 μl of a solution containing […] sodium cacodylate, pH=7.5, 1 mM CoCl2, 0.1 mM dithiothreitol, 0.05 mg/ml Bovine Serum Albumin, 10 units TdT (from Boerhringer calf thymus), 0.5 nmol dCTP, and 0.5 nmol dGTP for one hour at 37° C. […]
# [5] = system: reactive oxygenated substances (H2 O2 and HO^-); assay: Production of reactive oxygenated substances (H2O2 and HO-) in BAF3 cells, DCFH-DA flow cytometry; format: cell-based, mouse; conditions: for Fluorescence/10^6 cells: compound A 0 μM
# HeLa cells [6] = assay: 2-oxobutyrate reversal of MTOB-induced growth inhibition of HeLa cells (methionine-free medium); format: cell-based
# Protocol: HeLa cells (0.5×10^6 per Petri dish) were cultured in 3 ml of a minimum essential Eagle medium not containing methionine and containing 10% by weight dialyzed fetal calf serum. After four hours, 2-oxobutyrate (10 mM-40 mM) in the presence of 2 mM 4-methylthio-2-oxobutanoic acid (MTOB) were added. After three days at 37° C., the cells were washed twice in a buffered, phosphatized saline medium having a pH of 7.5 (PBS medium) and collected in the same type of buffer. Cell growth was measured in the same manner as in the preceding example.
# Beginning at a level of 10 mM 2-oxobutyrate, inhibition decreased 2-3 times.
# BAF3-bcl2 cells = system: BAF3-bcl2 cells
# Protocol: (§1) The cells used were identical to those in the preceding example.
# (§2) [^14 C]MTOB was prepared by oxidative deamination of [^14 C]Methionine, as described in Ogier et al, Biochem. Pharmacol., 45, 1631-1644 (1993). [^14 C]MTOB (5×10^6 dpm corresponding to 38.2 nmol) was added to a cellular BAF3-bO or BAF3-bcl2 suspension (2.4×10^5 cells/ml) in DMEM containing 6% fetal calf serum and 5% IL3. 39 hours later, the cells were washed twice in PBS and placed in suspension at a concentration of 9×10^5 cells/ml. [U ^14 C]MTOB (1.9×10^6 dpm corresponding to 14.5 nmol) was added to 10^8 cells, and, eight hours later, the cells were collected by centrifugation at 400 g for five minutes. The cellular sediments were solubilized using 1.5 ml of 0.5N NaOh for 30 minutes at 60° C. The total radioactivity in the cells was measured on 10 μl aliquots. Next, perchloric acid in a final concentration of 0.5N, then 200 μmol of 2,4-DNPH (2,4-dinitrophenylhyrazine, marketed by Merck) were added to the alkaline hydrolyzate obtained. The mixture was heated to 70° C. for 30 minutes, then centrifuged at 400 g for five minutes. The precipitate was solubilized ion 1 ml of 0.5N NaOH, and the radioactivity and protein content were determined. NaOH, pH=10, was added to the supernatant. The marked metabolites were extracted in ethylene acetate, and the organic phase was dried, acidified, and extracted in dichloromethane. The marked metabolites in the organic phase were separated out and identified using high-performance thin-layer chromatography and compared to the 2,4-DNPH derivatives of the reference compounds, then quantified by radiochromatography.
# BAF3-bO cells = system: BAF3-bO cells
# Protocol: as §1, §2
# [7] = Table 5, three mice, daily injection for 15 days, Methional 25 mg/kg, control 20.5
compound,measurement,setting,value
"CSCCC(=O)O [MTPA, methylthiopropionic acid]",IC50,HeLa cells [1],10 mM
CCCO [propanol],triggering of apoptosis (ladder of DNA fragments of 180 to 200 base pairs on gel),BAF3 cells [2],the gel did not possess this characteristic
CSCCCO [methionol],IC50,HeLa cells [1],> 20 mM
"O=NN(CCCl)C(=O)NCCCl [BCNU, N,N-Bis(2-chloroethyl)-N-nitrosourea]",Average Survival Time,[3]; [7],24.5 days
same,% long-term survivors (mice surviving beyond 60 days),"[3]; Table 6, 6 or 10 mice, Methional 50 mg/kg, control 0",0%
same,Average Survival Time,"[3]; Table 6, 6 or 10 mice, Methional 50 mg/kg, control 23.7",32.5 days
same,% apoptotic cells,BAF3 cells [4],2.3%
same,Fluorescence/10^6 cells,[5]; BCNU 10 μg/ml,4%
same,Fluorescence/10^6 cells,[5]; BCNU 20 μg/ml,4%
same,Fluorescence/10^6 cells,[5]; BCNU 40 μg/ml,10%
CCC(=O)C(=O)O [2-oxobutyrate],decrease of growth inhibition,"HeLa cells [6]; beginning at 10 mM 2-oxobutyrate, with 2 mM MTOB",2-3 times
CSCCC(NCc1c(CO)cnc(C)c1O)C(=O)OC(C)(C)C (stereo not drawn) [Compound A],Average Survival Time,[3]; [7],21.9 days
same,% apoptotic cells,BAF3 cells [4],0.3%
same,effect on increase of HO^- resulting from increased BCNU concentration,[5]; compound A 50 μM with BCNU,suppressed the increase of HO^-
CSCCC(=O)C(=O)O [[^14 C]MTOB],"2,4-DNPH malondialdehyde (2,4-DNPH pyrazole)",BAF3-bcl2 cells; BAF3-bcl2,0 dpm/mg of DNA
same,"2,4-DNPH methional",BAF3-bcl2 cells; BAF3-bcl2,"7,650 dpm/mg of DNA"
same,Free methional,BAF3-bcl2 cells; BAF3-bcl2,"51,440 dpm/mg of DNA"
same,Spec. activity of cellular proteins,BAF3-bcl2 cells; BAF3-bcl2,"20,850 dpm/mg protein"
same,Total radioactivity/mg of DNA,"BAF3-bcl2 cells; BAF3-bcl2, incubation 47 hours","1,111,000 /mg of DNA"
same,"marked malondialdehyde formation, result in words",BAF3-bcl2 cells; BAF3-bcl2 cell extracts,no radioactivity with respect to the malondialdehyde was detected
same,increase in radioactivity of free methionine (printed metmonine) in BAF3-bcl2 versus BAF3-bO cells,BAF3-bcl2 cells; BAF3-bcl2 compared with BAF3-bO,40%
same,"2,4-DNPH malondialdehyde (2,4-DNPH pyrazole)",BAF3-bO cells; BAF3-bO,800 dpm/mg of DNA
same,"2,4-DNPH methional",BAF3-bO cells; BAF3-bO,"14,050 dpm/mg of DNA"
same,Free methional,BAF3-bO cells; BAF3-bO,"36,820 dpm/mg of DNA"
same,Spec. activity of cellular proteins,BAF3-bO cells; BAF3-bO,"23,500 dpm/mg protein"
same,radioactivity in methional higher in BAF3-bO than in BAF3-bcl2 cells,BAF3-bO cells; BAF3-bO compared with BAF3-bcl2,80%
same,Total radioactivity/mg of DNA,"BAF3-bO cells; BAF3-bO, incubation 47 hours","1,252,000 /mg of DNA"
"CSCCC(=O)C(=O)O [MTOB, 4-methylthio-2-oxobutanoic acid]",IC50,HeLa cells [1],1.6 mM
same,inhibition at 2000 µM,"HeLa cells [6]; Homo sapiens, HeLa, 72 h, 2 mM MTOB alone, three days at 37° C.",72%
"CSCC[C@H](N)C(=O)O [L methionine, L-methionine]",IC50,HeLa cells [1],> 20 mM
